Experimental data reported in US20190240225A1, “COMBINATION OF A BCL-2 INHIBITOR AND A MCL-1 INHIBITOR, USES AND PHARMACEUTICAL COMPOSITIONS THEREOF” (LES LABORATOIRES SERVIER, priority 2016, published 2019).
Read-outs that look alike come from different tables or passages of the source.

Assays:
[1] = tested on: SU-DHL-10; assay: CellTiterGlo viability, DLBCL cell line; type: cell-based; conditions: single agent, 2 days; for IC50: read-out: Abs IC50
Method: (§2) In addition, all media contained penicillin (100 IU/ml), streptomycin (100 μg/ml) and L-glutamine (2 mM). Unless otherwise mentioned, culture media and supplements were from Amimed/Bioconcept (Allschwil, Switzerland).
(§3) Cell lines were cultured at 37° C. in a humidified atmosphere containing 5% CO2 and expanded in T-75 flasks. In all cases cells were thawed from frozen stocks, expanded through ≥1 passage using appropriate dilutions, counted and assessed for viability using a CASY cell counter (Omni Life Science, Bremen, Germany) prior to plating 25 ul/well at the densities indicated in Table 1 into 384-well plates (Corning). All cell lines were determined to be free of mycoplasma contamination by PCR assay performed at Idexx Radii (Columbia, Mo., USA) and misidentification ruled out by assessment of a panel of 48 Small Nucleotide Polymorphisms (SNPs) at Asuragen (Austin, Tex., USA) or in-house.
(§4) Stock solutions of compounds were prepared at a concentration of 10 mM in DMSO (Sigma) and stored at −20° C. Where necessary to afford a full dose-response curve, the stock solutions were pre-diluted in DMSO to 1′000-fold the desired start concentration (see Table 2). On the day after cell seeding, eight 2.5-fold serial dilutions of each compound were dispensed, either individually or in all possible permutations in a checkerboard fashion, directly into the cell assay plates using a non-contact 300D Digital Dispenser (ILCAN, Mannedorf, Switzerland) as outlined in FIG. 4. The final concentration of DMSO was 0.2% in all wells.
(§5) Effects of the single agents as well as their checkerboard combinations on cell viability were assessed after 2 days of incubation at 37° C./5% CO2 by quantification of cellular ATP levels using CellTiterGlo (Promega, Madison, Wis., USA) at 25 μL reagent/well and n=2 replicate plates per condition. Luminescence was quantified on a M1000 multipurpose platereader (ILCAN, Mannedorf, Switzerland). The number/viability of cells at time of compound addition was likewise assessed and used to assess the degree of the population doubling time of a particular cell line.
(§6) Single agent IC50s were calculated using standard four-parametric curve fitting. […] IC50 are defined as the compound concentration at which the CTG signal is reduced to 50% of that measured for the vehicle (DMSO) control.

[2] = tested on: NU-DHL-1; assay: CellTiterGlo viability, DLBCL cell line; type: cell-based; conditions: single agent, 2 days; for IC50: read-out: Abs IC50
Method: as §2
(§7) Cell lines were cultured at 37° C. in a humidified atmosphere containing 5% CO2 and expanded in T-75 flasks. In all cases cells were thawed from frozen stocks, expanded through ≥1 passage using appropriate dilutions, counted and assessed for viability using a CASY cell counter (Omni Life Science, Bremen, Germany) prior to plating 25 ul/well at the densities indicated in Table 1 into 384-well plates (Corning).
as §4, §5, §6

[3] = Stability of dosing formulations; type: physicochemical; conditions: 4° C; Compound 1, HCl in 5% Ethanol, 20% Dexolve-7 (iv) or PEG300/EtOH/water (40/10/50) (po); ABT-199 in PEG300/EtOH/water (40/10/50); Compound 3 in Liposomal formulation
Method: Compound 1, HCl was formulated in 5% Ethanol, 20% Dexolve-7 as a solution for intravenous administration or formulated in PEG300/EtOH/water (40/10/50) for oral administration. ABT-199 was formulated in PEG300/EtOH/water (40/10/50) for oral administration. […] Vehicle and compound dosing solutions were prepared as needed. All animals were dosed at 10 mL/kg with Compound 1 (expressed as the free base) or ABT-199, or 5 mL/kg with Compound 3.

[4] = tested on: Pfeiffer; assay: CellTiterGlo viability, DLBCL cell line; type: cell-based; conditions: single agent, 2 days; for IC50: read-out: Abs IC50
Method: as §2, §7, §4, §5, §6

[5] = tested on: SK-N-FI; assay: CellTiterGlo viability, neuroblastoma cell line; type: cell-based; conditions: single agent, 2 days
Method: In addition, all media contained penicillin (100 IU/ml), streptomycin (100 μg/ml) and L-glutamine (2 mM). […] In all cases cells were thawed from frozen stocks, expanded through ≥1 passage using appropriate dilutions, counted and assessed for viability using a CASY cell counter prior to plating 150 ul/well at the densities indicated in Table 6 into 96-well plates. All cell lines were determined to be free of mycoplasma contamination in-house. Stock solutions of compounds were prepared at a concentration of 5 mM in DMSO and stored at −20° C. In order to analyse the activity of the compounds as single agents, cells were seeded and treated with nine 3.16-fold serial dilutions of each compound dispensed individually directly into the cell assay plates. […] Two independent experiments, each one performed in duplicates were performed. […]. Luminescence was quantified on a multipurpose platereader. Single agent IC50s were calculated using standard four-parametric curve fitting. […] Identical experiments were performed to assess potential synergistic interactions between compound combinations. […] All calculations were performed using Chalice TM Bioinformatics Software.

[6] = tested on: JM1; assay: CellTiterGlo viability, DLBCL cell line; type: cell-based; conditions: single agent, 2 days; for IC50: read-out: Abs IC50
Method: as §2, §3, §4, §5
Single agent IC50s were calculated using standard four-parametric curve fitting. […] All calculations were performed using the Combination Analysis Module in-house software. IC50 are defined as the compound concentration at which the CTG signal is reduced to 50% of that measured for the vehicle (DMSO) control.

[7] = tested on: KARPAS-422; assay: CellTiterGlo viability, DLBCL cell line; type: cell-based; conditions: single agent, 2 days; for IC50: read-out: Abs IC50
Method: as §2, §7, §4, §5, §6

[8] = tested on: neuroblastoma cell lines; assay: CellTiterGlo viability, panel of neuroblastoma cell lines; type: cell-based; conditions: all neuroblastoma cell lines tested; single agent
Method: (§1) In addition, all media contained penicillin (100 IU/ml), streptomycin (100 μg/ml) and L-glutamine (2 mM). Cell lines were cultured at 37° C. in a humidified atmosphere containing 5% CO2 and expanded in T-150 flasks. In all cases cells were thawed from frozen stocks, expanded through ≥1 passage using appropriate dilutions, counted and assessed for viability using a CASY cell counter prior to plating 150 ul/well at the densities indicated in Table 6 into 96-well plates. All cell lines were determined to be free of mycoplasma contamination in-house.
Stock solutions of compounds were prepared at a concentration of 5 mM in DMSO and stored at −20° C. […] Effects of the compounds on cell viability were assessed after 2 or 3 days of incubation (as indicated in Table 6) at 37° C./5% CO2 by quantification of cellular ATP levels using CellTiterGlo at 150 μL reagent/well. […] Luminescence was quantified on a multipurpose platereader. Single agent IC50s were calculated using standard four-parametric curve fitting. […]
Identical experiments were performed to assess potential synergistic interactions between compound combinations. Synergy Score were assessed using the Excess Inhibition 2D matrix according to the Loewe additivity model (Lehar et al, Nat Biotechnol. 2009 July; 27(7): 659-666). […]

[9] = tested on: Acute Myeloid Leukemia (AML) cell lines; assay: CellTiterGlo viability, panel of AML cell lines; type: cell-based; conditions: all 5 AML cell lines of combination (c); single agent; read-out: IC50s
Method: In addition, all media contained penicillin (100 IU/ml), streptomycin (100 μg/ml) and L-glutamine (2 mM).
as §1, with “Cell” for “In addition, all media contained penicillin (100 IU/ml), streptomycin (100 μg/ml) and L-glutamine (2 mM). Cell”, “Table 1” for “Table 6”
Stock solutions of compounds were prepared at a concentration of 5 mM in DMSO and stored at −20° C.
In order to analyse the activity of the compounds as single agents, cells were seeded and treated with nine 2-fold serial dilutions of each compound dispensed individually directly into the cell assay plates. Effects of the compounds on cell viability were assessed after 3 days of incubation at 37° C./5% CO2 by quantification of cellular ATP levels using CellTiterGlo at 75 μL reagent/well. All the experiments were performed in triplicates. Luminescence was quantified on a multipurpose plate reader. Single agent IC50s were calculated using standard four-parametric curve fitting. […]
In order to analyse the activity of the compounds in combination, cells were seeded and treated with seven or eight 3.16-fold serial dilutions of each compound dispensed, either individually or in all possible permutations in a checkerboard fashion, directly into the cell assay plates as indicated in FIG. 9. Effects of the single agents as well as their checkerboard combinations on cell viability were assessed after 3 days of incubation at 37° C./5% CO2 by quantification of cellular ATP levels using CellTiterGlo at 75 μL reagent/well. […] Luminescence was quantified on a multipurpose plate reader.
Potential synergistic interactions between compound combinations were assessed using the Excess Inhibition 2D matrix according to the Loewe additivity model and are reported as Synergy Score (Lehar et al, Nat Biotechnol. 2009 July; 27(7): 659-666). […]

Row | Compound | Max Inh [1] [%] | Max Inh [2] [%] | stability of dosing formulation [3] | Max Inh [4] [%] | Max Inh (Compound 3: Mean of Max Inh) [5] [%] | Max Inh [6] [%] | Max Inh [7] [%] | other results
1 | Cl.O=C(c1cc(-c2cc3c(cc2C(=O)N2Cc4ccccc4C[C@H]2CN2CCOCC2)OCO3)n2c1CCCC2)N(c1ccccc1)c1ccc(O)cc1 [Compound 1, HCl, N-(4-hydroxyphenyl)-3-{6-[((3S)-3-(4-morpholinylmethyl)-3,4-dihydro-2(1H)-isoquinolinyl)carbonyl]-1,3-benzodioxol-5-yl}-N-phenyl-5,6,7,8-tetrahydro-1-indolizine carboxamide hydrochloride] | 43.9 | 102.1 | stable for at least one week at 4 °C | 92.0 | 6 | 99.1 | 90.9 | IC50 ([1]; Homo sapiens, SU-DHL10, 48 h): ≥ 10000 nM; IC50 ([2]; Homo sapiens, 48 h): 51.5 nM; IC50 ([4]; Homo sapiens, 48 h): 4500 nM; IC50 ([5]; Homo sapiens, 48 h): > 3000 nM; IC50 ([6]; Homo sapiens, 48 h): 697 nM; IC50 ([7]; Homo sapiens, 48 h): 2180 nM; IC50 [8]: > 1000 nM
2 | COc1ccccc1-c1nccc(COc2ccccc2C[C@@H](Oc2ncnc3sc(-c4ccc(F)cc4)c(-c4ccc(OCCN5CCN(C)CC5)c(Cl)c4C)c23)C(=O)O)n1 [Compound 3, (2R)-2-{[(5Sa)-5-{3-chloro-2-methyl-4-[2-(4-methylpiperazin-1-yl)ethoxy]phenyl}-6-(4-fluorophenyl)thieno[2,3-d]pyrimidin-4-yl]oxy}-3-(2-{[2-(2-methoxyphenyl)pyrimidin-4-yl]methoxy}phenyl)propanoic acid] | 98.3 | 98.1 | stable for three weeks at 4 °C | 82.7 | 33 | 99.7 | 98.3 | IC50 [1]: 3.84 nM; IC50 [2]: 57.9 nM; IC50 [4]: 42.6 nM; IC50 [5]: > 3000 nM; IC50 [9]: < 200 nM; IC50 [6]: 58.8 nM; IC50 [7]: 2.14 nM
